Test results taken from PMC9312091, “Mining Amphibian and Insect Transcriptomes for Antimicrobial Peptide Sequences with rAMPage” (Antibiotics, 2022).
Peptide text beside a SMILES is read from it.

System: E. coli and/or S. aureus
Assay: Antimicrobial susceptibility testing (MIC and MBC), summary statements
Type: cell-based
Conditions: AST in vitro against E. coli ATCC 25922 and S. aureus ATCC 29213
Experimental: A total of 21 of the 1137 putative AMPs (Table S2) were synthesized (Genscript Biotech, Piscataway, NJ, USA) and tested for their antimicrobial activity against Escherichia coli ATCC 25922 and Staphylococcus aureus ATCC 29213 in a minimum of three independent experiments (see Figure S5 for a full set of experimental results). In these antimicrobial susceptibility tests, AMP activity was assessed using two metrics: minimum inhibitory and bactericidal concentrations (MIC and MBC, respectively). Lower MIC and MBC values are desirable as they indicate that lower AMP concentrations are sufficient for inhibitory or bactericidal activity, respectively. AMP toxicity was measured by HC50 hemolytic concentration values—the concentration required to lyse ≥ 50% of porcine red blood cells. […]
Twenty-one putative AMP sequences identified using the rAMPage pipeline were validated through a minimum of three AST experiments performed independently on separate days. In these tests, the AMP activity was assessed using two metrics: minimum inhibitory concentration and minimum bactericidal concentration (MIC and MBC, respectively). MIC and MBC values were determined using procedures outlined by the Clinical and Laboratory Standards Institute (CLSI), with the recommended adaptations for the testing of cationic AMPs described previously. […]

CC(C)C[C@H](NC(=O)[C@H](CCCCN)NC(=O)[C@H](CCC(=O)O)NC(=O)[C@H](CC(C)C)NC(=O)[C@H](CCCNC(=N)N)NC(=O)[C@@H](NC(=O)[C@H](Cc1ccc(O)cc1)NC(=O)[C@H](CC(N)=O)NC(=O)[C@H](CCCCN)NC(=O)[C@H](CCCCN)NC(=O)[C@H](CC(N)=O)NC(=O)[C@@H](NC(=O)[C@H](CC(C)C)NC(=O)[C@H](CCCCN)NC(=O)[C@H](CCCCN)NC(=O)[C@@H](NC(=O)[C@H](CO)NC(=O)[C@H](CCCCN)NC(=O)[C@H](CO)NC(=O)[C@H](CC(C)C)NC(=O)[C@H](Cc1c[nH]c2ccccc12)NC(=O)[C@@H](N)CO)C(C)C)C(C)C)[C@@H](C)O)C(=O)N[C@@H](C)C(=O)N[C@@H](CCCCN)C(=O)N[C@@H](CCCCN)C(=O)N[C@@H](CCCCN)C(=O)N[C@@H](CC(C)C)C(=O)N[C@@H](Cc1ccccc1)C(=O)N[C@@H](CC(N)=O)C(=O)N[C@@H](CCC(=O)O)C(=O)O [TeRu4] (H-SWLSKSVKKLVNKKNYTRLEKLAKKKLFNE-OH; N-terminus and C-terminus assumed)
antimicrobial activity (in words): active only against E. coli
